Data from article PMC9002265, “A New Series of Strigolactone Analogs Derived From Cinnamic Acids as Germination Inducers for Root Parasitic Plants” (Frontiers in Plant Science, 2022).
Read-outs that look alike come from different tables or passages of the source.

Experiments:
ShHTL7 [1] = target: T1, ShHTL7 (Striga hermonthica, UniProt A0A0M3PNA2); experiment: YLG assay (inhibition of YLG hydrolysis) with recombinant ShHTL7; type: biochemical
T1 sequence (A0A0M3PNA2 1-271): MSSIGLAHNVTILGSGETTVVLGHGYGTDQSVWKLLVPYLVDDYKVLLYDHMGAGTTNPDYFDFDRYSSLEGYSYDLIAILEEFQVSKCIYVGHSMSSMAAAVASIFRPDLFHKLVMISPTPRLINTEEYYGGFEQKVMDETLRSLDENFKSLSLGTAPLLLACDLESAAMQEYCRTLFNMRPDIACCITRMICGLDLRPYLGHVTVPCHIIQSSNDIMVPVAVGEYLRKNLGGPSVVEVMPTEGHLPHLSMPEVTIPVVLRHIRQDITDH
Experimental: (§1) The ORF fragment of ShHTL6 and ShHTL7 was synthesized using IDT gBlock service. The PCR amplified ShHTL6 and ShHTL7 fragment was digested with Nco I and EcoR I, and the digested product was introduced into a modified pET28 vector with an N-terminal His8 tag. Escherichia coli BL21(DE3) was used for protein expression. The overnight culture (12 ml) was added to a fresh LB medium (1.2 L) containing kanamycin (50 mg/L) at 37°C. After OD600 reached 0.8, 0.1 mM IPTG was added and the cell was further incubated at 16°C for 21 h. The culture medium was centrifuged at 3700 g and the pellet was stored at −20°C until use. The pellet was resuspended and sonicated in a lysis buffer (50 mM Tris buffer (pH 8.0) containing 500 mM NaCl, 10 mM 2-mercaptoethanol, and 10% glycerol). The supernatant was purified by Ni Sepharose TM 6 Fast Flow (500 μl, Cytiva). After washing with the washing buffer (50 mM Tris buffer (pH 8.0) containing 500 mM NaCl and 20 mM imidazole), The bound protein was eluted with elution buffer (50 mM Tris buffer (pH 8.0) containing 500 mM NaCl and 200 mM imidazole). The eluate was concentrated using VIVASPIN Turbo 15 (Sartorius), and the concentration was adjusted to 5 mg/ml. The purified protein was aliquoted to the appropriate volume, immediately frozen in liquid nitrogen, and stored at −80°C until use.
(§2) After YLG was incubated with recombinant ShHTL6 or ShHTL7 for 1 h, the fluorescence was measured by spectraMax i5 (Molecular Devices) at excitation by 480 nm and detection by 520 nm. IC50 values were calculated using the online tool Quest GraphTM IC50 Calculator (AAT Bioquest, Inc., United States; https://www.aatbio.com/tools/ ic50-calculator).

ShHTL6 = target: T2, ShHTL6 (Striga hermonthica, UniProt A0A0M4AUV4); experiment: YLG assay (inhibition of YLG hydrolysis) with recombinant ShHTL6; type: biochemical
T2 sequence (A0A0M4AUV4 1-271): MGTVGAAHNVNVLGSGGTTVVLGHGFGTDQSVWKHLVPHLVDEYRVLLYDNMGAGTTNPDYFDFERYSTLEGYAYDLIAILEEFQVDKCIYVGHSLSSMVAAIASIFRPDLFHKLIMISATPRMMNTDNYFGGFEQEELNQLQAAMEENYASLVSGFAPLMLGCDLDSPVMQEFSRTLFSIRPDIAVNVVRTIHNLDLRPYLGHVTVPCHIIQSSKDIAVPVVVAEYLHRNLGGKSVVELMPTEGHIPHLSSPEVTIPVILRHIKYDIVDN
Experimental: as §1, §2

Orobanche minor seeds = experiment: Germination assay, Orobanche minor seeds; type: in vivo; conditions: O. minor seeds; result in words
Experimental: Orobanche minor seeds were washed with 70% EtOH, and then sonicated for 4 min in 1% sodium hypochlorite solution containing 0.2% Tween-20. The seeds were then washed 10 times with sterile water and suspended in 0.1% agar solution. The seeds were loaded onto 5-mm glass fiber filter disks (20–70 seeds/disk) and were conditioned at 23°C for 15 days. Each disk was transferred into a 96-well plate. A 30 μl aliquot of test chemical solution was added to the well. For the germination assay, the chemical solutions were prepared by 1,000 times dilution from each acetone stock solution with water (final acetone concentration was 0.1%). GR24 solution (0.1% acetone) and sterile water (0.1% acetone) was used as positive and negative control, respectively. The 96 well plates were incubated for 5 days at 23°C and the number of total seeds and germinated seeds was counted.

AtD14 = target: T3, AtD14 (Arabidopsis thaliana, UniProt Q9SQR3); experiment: Hydrolysis assay with recombinant AtD14; type: biochemical; conditions: 10 μM substrate, 30°C, 60 min
T3 construct: The cDNA of AtD14 was introduced into pMALHis vector; MBP; His6; made in house; host or cells: E. coli BL21 (DE3)
T3 sequence (Q9SQR3 1-267): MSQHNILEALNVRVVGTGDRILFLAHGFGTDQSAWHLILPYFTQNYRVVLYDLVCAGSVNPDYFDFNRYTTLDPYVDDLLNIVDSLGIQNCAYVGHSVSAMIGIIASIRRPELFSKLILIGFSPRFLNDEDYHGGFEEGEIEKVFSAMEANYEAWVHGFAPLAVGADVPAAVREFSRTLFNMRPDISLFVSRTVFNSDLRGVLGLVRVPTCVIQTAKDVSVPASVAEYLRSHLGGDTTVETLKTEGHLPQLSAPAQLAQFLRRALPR
Experimental: The cDNA of AtD14 was introduced into pMALHis vector that has both MBP-tag and His6-tag. The vector was transformed in to E. coli BL21 (DE3) and the cell was precultured in LB medium containing 50 μg/ml ampicillin. Overnight cultures (10 ml) were added to fresh LB medium (1 L) containing 50 μg/ml ampicillin and it was cultured at 37°C. After OD600 reached to 0.8, the cultures were cooled at 16°C for 1 h, and then 0.1 mM IPTG was added. The culture was further incubated at 16°C for 20 h. The culture medium was centrifuged at 3,700 g and the pellet was stored at −20°C until use. The pellet was resuspended and sonicated in lysis buffer (50 mM Tris buffer (pH 8.0) containing 500 mM NaCl, 10 mM 2-mercaptoethanol, and 10% glycerol). The supernatant was purified by Ni Sepharose TM 6 Fast Flow (500 μl, Cytiva) After washing with the washing buffer (50 mM Tris buffer (pH 8.0) containing 500 mM NaCl and 20 mM imidazole), The bound protein was eluted with elution buffer (50 mM Tris buffer (pH 8.0) containing 500 mM NaCl and 200 mM imidazole). The eluate was concentrated using VIVASPIN Turbo 15 (Sartorius), and the concentration was adjusted to 5 mg/ml. The purified protein was aliquoted to the appropriate volume, immediately frozen in liquid nitrogen, and stored at −80°C until use.
(§3) Hydrolysis assays were carried out at 30°C for 60 min in 100 μl of a reaction buffer containing 0.13 pmol recombinant ShHTL7 or AtD14, 10 μM of substrate in 50 mM Phosphate-Na buffer (pH 7.0) containing 2% acetone. The enzyme reaction was stopped by addition of 100 μl of acetonitrile containing 1-naphtaleneacetic acid (NAA; 0.5 ng/μl) as an internal standard. After centrifuged at 13,000 rpm for 5 min, each sample was subjected to LC–MS/MS analysis equipped with reverse-phase column (CORTECS UPLC Phenyl 1.6 μm, ϕ2.1 × 75 mm; Waters). The concentration of remaining substrate and reaction product was calculated by using NAA as an internal standard. Detailed information about the analytical condition is described in Supplementary Table 1.

ShHTL7 [2] = target: T1, ShHTL7; experiment: Hydrolysis assay with recombinant ShHTL7; type: biochemical; conditions: 10 μM substrate, 30°C, 60 min
Experimental: as §1, §3

[3] = system: Arabidopsis wild type Col-0; experiment: Growth promoting assay and root phenotypic analysis; type: in vivo; conditions: 1 μM on agar plate
Experimental: Sterilized seeds of the Arabidopsis wild type Col-0 were put on the plate containing 1% (w/v) agar-solidified 0.5× Murashige and Skoog (MS) medium, 1% sucrose. Test compounds were dissolved in the medium at 1 μM by 10,000 times dilution from each acetone stock (final concentration of acetone was 0.01% (v/v)). To evaluate the growth promoting effect, these seedlings were cultured horizontally at 22°C for 20 days under LED light (105 μmol/m^2/s) with a 16 h light/8 h dark photoperiod. After the cultivation, flesh weight of shoot was measured. For root phenotypic analysis, these seedlings were cultured verticaly at 22°C for 11 days under LED light (105 μmol/m^2/s) with a 16 h light/8 h dark photoperiod. After the cultivation, root length was measured by using ImageJ software and number of lateral roots was counted by using a microscope.

[4] = Time course monitoring of degradation in hydroponic culture; type: physicochemical; conditions: 1 μM, within 1 week, pH 5.7, LC-MS/MS
Experimental: t-CASL1, c-CASL1, PPASL, and GR5 were separately added to 15 ml tubes containing hydroponic culture. The final concentration of the test compounds is 1 μM and acetone was adjusted to 0.01% (v/v). These solutions were incubated under the same conditions as branching assay. After incubation for 0, 5, 24 72, or 168 h, 495 μl of hydroponic culture containing test compounds was collected and 5 μl of NAA solution (10 μM) was added as an internal standard. The solution was extracted with ethyl acetate. The ethyl acetate phase was dried up under the nitrogen gas and dissolved in acetonitrile. These samples were subjected to LC–MS/MS analysis equipped with reverse-phase column (CORTECS UPLC Phenyl 1.6 μm, ϕ2.1 × 75 mm; Waters). Each peak area of test chemicals and internal standard was calculated, and the remaining percentage of teste chemicals was calculated. At the same time, the degradation products of test compounds (CA or PPA) were also analyzed. Detailed information about the analytical condition was described in Supplementary Table 1.

[5] = 1 h incubation, read-out: IC50 in YLG assay
[6] = read-out: IC50 in YLG assay, 1 h incubation

Row | SMILES | IC50 (ShHTL7 [1]; [5]) [nM] | further results
1 | CC1=C[C@H](O/C=C2/C(=O)O[C@@H]3c4ccccc4C[C@H]23)OC1=O (relative stereo) [GR24, reference compound] | 170 | IC50 (ShHTL6; ShHTL6, YLG hydrolysis, 1 h incubation, read-out: IC50 in YLG assay): 2350 nM
2 | CC1=CC(OC(=O)CCc2ccccc2)OC1=O (stereo not drawn) [PPASL] | 1460 | IC50 (ShHTL6): 2240 nM; germination-inducing activity compared with c-CASL1 or t-CASL1 (Orobanche minor seeds): much weaker activity; hydrolysis by AtD14 (AtD14): can hydrolyze; hydrolysis by HTL7 (ShHTL7 [2]): can hydrolyze
3 | CC1=CC(OC(=O)/C=C\c2ccc(C)cc2)OC1=O (stereo not drawn) [c-CASL2] | 680 | 
4 | CC1=CC(OC(=O)/C=C\c2ccc(O)cc2)OC1=O (stereo not drawn) [c-CASL3] | 3430 | 
5 | COc1ccc(/C=C\C(=O)OC2C=C(C)C(=O)O2)cc1 (stereo not drawn) [c-CASL4] | 660 | 
6 | CCOc1ccc(/C=C\C(=O)OC2C=C(C)C(=O)O2)cc1 (stereo not drawn) [c-CASL5] |  | IC50 (ShHTL7 [1]; [6]): 310 nM
7 | CC1=CC(OC(=O)/C=C\c2ccc([N+](=O)[O-])cc2)OC1=O (stereo not drawn) [c-CASL6] | 250 | 
8 | CC1=CC(OC(=O)/C=C\c2ccc(F)cc2)OC1=O (stereo not drawn) [c-CASL7] | 1140 | 
9 | CC1=CC(OC(=O)/C=C\c2ccc(Br)cc2)OC1=O (stereo not drawn) [c-CASL8] | 360 | 
10 | CC1=CC(OC(=O)/C=C\c2ccc(Cl)cc2)OC1=O (stereo not drawn) [c-CASL9] | 340 | 
11 | CC1=CC(OC(=O)/C=C\c2ccc(C(F)(F)F)cc2)OC1=O (stereo not drawn) [c-CASL10] | 220 | 
12 | CC1=CC(OC(=O)/C=C2/CCc3ccccc32)OC1=O (stereo not drawn) [c-indCASL] | 2010 | 
13 | CC1=CC(OC(=O)/C=C2/CCCc3ccccc32)OC1=O (stereo not drawn) [c-tetCASL] | 4610 | 
14 | O=C(O)/C=C\c1ccccc1 [cis-CA, cis-cinnamic acid, reference compound] |  | lateral root density ([3]; 11 days): increased; primary root length ([3]; 11 days): inhibited; shoot fresh weight ([3]; 20 days): increase
15 | CC1=CC(OC(=O)/C=C/c2ccccc2)OC1=O (stereo not drawn) [t-CASL1] | 2050 | IC50 (ShHTL6): 1850 nM; loss (non-enzymatic degradation) in hydroponic culture medium [4]: ~40%; hydrolysis by AtD14 (AtD14): can hydrolyze; hydrolysis by HTL7 (ShHTL7 [2]): can hydrolyze
16 | CC1=CC(OC(=O)/C=C/c2ccc(C)cc2)OC1=O (stereo not drawn) [t-CASL2] | 1410 | 
17 | CC1=CC(OC(=O)/C=C/c2ccc(O)cc2)OC1=O (stereo not drawn) [t-CASL3] | > 10000 | 
18 | COc1ccc(/C=C/C(=O)OC2C=C(C)C(=O)O2)cc1 (stereo not drawn) [t-CASL4] | 2210 | 
19 | CCOc1ccc(/C=C/C(=O)OC2C=C(C)C(=O)O2)cc1 (stereo not drawn) [t-CASL5] |  | IC50 (ShHTL7 [1]; [6]): 3970 nM
20 | CC1=CC(OC(=O)/C=C/c2ccc([N+](=O)[O-])cc2)OC1=O (stereo not drawn) [t-CASL6] | 710 | 
21 | CC1=CC(OC(=O)/C=C/c2ccc(F)cc2)OC1=O (stereo not drawn) [t-CASL7] | 1550 | 
22 | CC1=CC(OC(=O)/C=C/c2ccc(Br)cc2)OC1=O (stereo not drawn) [t-CASL8] | 700 | 
23 | CC1=CC(OC(=O)/C=C/c2ccc(Cl)cc2)OC1=O (stereo not drawn) [t-CASL9] | 830 | 
24 | CC1=CC(OC(=O)/C=C/c2ccc(C(F)(F)F)cc2)OC1=O (stereo not drawn) [t-CASL10] | 340 | 
25 | CC1=CC(OC(=O)/C=C2\CCc3ccccc32)OC1=O (stereo not drawn) [t-indCASL] | 3070 | germination-inducing activity compared with the corresponding non-fixed (unfixed) analog (Orobanche minor seeds): much stronger activity
26 | CC1=CC(OC(=O)/C=C2\CCCc3ccccc32)OC1=O (stereo not drawn) [t-tetCASL] | 3850 | germination-inducing activity compared with the corresponding non-fixed (unfixed) analog (Orobanche minor seeds): much stronger activity
